From PubChem BioAssay AID248 (DTP/NCI, 2004)
“And” between values parts separate entries of the source, which are not always exact repeats. Identical values can stand only once. Inconclusive results and toxic doses are left out.

Tested on: L1210 leukemia ip in BDF1 mice, survival T/C
Test: NCI In Vivo Anticancer Drug Screen. Data for tumor model L1210 Leukemia (intraperitoneal) in B6D2F1 (BDF1) mice
Settings: endpoint: mean survival time, higher = longer survival
How it was run: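 In this screen, tumor-bearing mice given compound are compared to those given vehicle, and their survival values are reported as a treated-to-control quotient.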

[1] = dose: 100.0 mg/kg/injection, schedule: Q04DX003 (ip), vehicle: saline

CN(C)C(CC(=O)c1ccccc1)C(=O)O (stereo unspecified)
T/C [1]: 94 % of control
T/C (dose: 200.0 mg/kg/injection, schedule: Q04DX003 (ip), vehicle: saline): 96 % of control

O=Cc1[nH]c(=S)[nH]c(=O)c1Cc1cc([N+](=O)[O-])ccc1O
T/C (dose: 100.0 mg/kg/injection, schedule: Q01DX001 (ip), vehicle: saline with Tween-80): 93 % of control
T/C (dose: 200.0 mg/kg/injection, schedule: Q01DX001 (ip), vehicle: saline with Tween-80): 104 % of control
T/C (dose: 400.0 mg/kg/injection, schedule: Q01DX001 (ip), vehicle: saline with Tween-80): 95 % of control

NC(C(=O)O)C(O)c1ccc2c(c1)OCO2 (stereo unspecified)
T/C (dose: 100.0 mg/kg/injection, schedule: Q01DX009 (ip), vehicle: saline with Tween-80): 103 % of control
T/C (dose: 200.0 mg/kg/injection, schedule: Q01DX009 (ip), vehicle: saline with Tween-80): 103 % of control
T/C (dose: 400.0 mg/kg/injection, schedule: Q01DX009 (ip), vehicle: saline with Tween-80): 113 % of control

CCCCNC(C)(C)C(SS)c1ccc(C(F)(F)F)cc1 (stereo unspecified)
T/C (dose: 25.0 mg/kg/injection, schedule: Q01DX009 (ip), vehicle: other): 96 % of control
T/C (dose: 25.0 mg/kg/injection, schedule: Q04DX003 (ip), vehicle: other): 98 % of control
T/C (dose: 50.0 mg/kg/injection, schedule: Q01DX009 (ip), vehicle: other): 94 % of control
T/C (dose: 50.0 mg/kg/injection, schedule: Q04DX003 (ip), vehicle: other): 93 % of control
T/C (dose: 100.0 mg/kg/injection, schedule: Q01DX009 (ip), vehicle: other): 98 % of control
T/C (dose: 100.0 mg/kg/injection, schedule: Q04DX003 (ip), vehicle: other): 86 % of control

CCc1nnnn1C12CC3CC(CC(C3)C1)C2
T/C [1]: 102 % of control

Nc1ccccc1SC1CC(=O)N(c2ccc3c(c2)OCO3)C1=O (stereo unspecified)
T/C (dose: 100.0 mg/kg/injection, schedule: Q04DX002 (ip), vehicle: saline with Tween-80): 93 % of control
T/C (dose: 200.0 mg/kg/injection, schedule: Q04DX002 (ip), vehicle: saline with Tween-80): 101 % of control
T/C (dose: 400.0 mg/kg/injection, schedule: Q04DX002 (ip), vehicle: saline with Tween-80): 86 % of control

Cc1ccc(S(=O)(=O)CC(O)(/C=C/c2ccccc2)c2ccccc2)cc1 (stereo unspecified)
T/C (dose: 100.0 mg/kg/injection, schedule: Q01DX001 (ip), vehicle: acetone): 98 % of control
T/C (dose: 200.0 mg/kg/injection, schedule: Q01DX001 (ip), vehicle: acetone): 93 % of control
T/C (dose: 400.0 mg/kg/injection, schedule: Q01DX001 (ip), vehicle: acetone): 89 % of control

NC(=O)c1nccnc1C(N)=O
T/C (dose: 100.0 mg/kg/injection, schedule: Q04DX003 (ip), vehicle: Klucel (hydroxypropylcellulose) (HPC)): 101 % of control
T/C (dose: 100.0 mg/kg/injection, schedule: Q04DX003 (ip), vehicle: saline with Tween-80): 96 % of control
T/C (dose: 200.0 mg/kg/injection, schedule: Q04DX003 (ip), vehicle: Klucel (hydroxypropylcellulose) (HPC)): 101 % of control
T/C (dose: 200.0 mg/kg/injection, schedule: Q04DX003 (ip), vehicle: saline with Tween-80): 96 % of control
T/C (dose: 400.0 mg/kg/injection, schedule: Q04DX003 (ip), vehicle: Klucel (hydroxypropylcellulose) (HPC)): 93 % of control
T/C (dose: 400.0 mg/kg/injection, schedule: Q04DX003 (ip), vehicle: saline with Tween-80): 96 % of control

Cc1c(CNc2ccc(Cl)c(C(=O)NC(CC(=O)O)C(=O)O)c2)ccc2nc(N)nc(N)c12 (stereo unspecified)
T/C (dose: 1.5 mg/kg/injection, schedule: Q01DX009 (ip), vehicle: Klucel (hydroxypropylcellulose) (HPC)): 110 % of control
T/C (dose: 3.0 mg/kg/injection, schedule: Q01DX009 (ip), vehicle: Klucel (hydroxypropylcellulose) (HPC)): 115 % of control
T/C (dose: 3.13 mg/kg/injection, schedule: Q01DX009 (ip), vehicle: Klucel (hydroxypropylcellulose) (HPC)): 120 % of control
T/C (dose: 6.0 mg/kg/injection, schedule: Q01DX009 (ip), vehicle: Klucel (hydroxypropylcellulose) (HPC)): 110 % of control and 92 % of control
T/C (dose: 12.5 mg/kg/injection, schedule: Q01DX009 (ip), vehicle: Klucel (hydroxypropylcellulose) (HPC)): 160 % of control
T/C (dose: 50.0 mg/kg/injection, schedule: Q01DX009 (ip), vehicle: Klucel (hydroxypropylcellulose) (HPC)): 168 % of control
T/C (dose: 100.0 mg/kg/injection, schedule: Q01DX009 (ip), vehicle: Klucel (hydroxypropylcellulose) (HPC)): 97 % of control and 100 % of control
T/C (dose: 100.0 mg/kg/injection, schedule: Q01DX009 (ip), vehicle: saline): 162 % of control
T/C (dose: 267.0 mg/kg/injection, schedule: Q01DX001 (ip), vehicle: saline): 122 % of control

CC1(C)CC2(OC2c2cccc([N+](=O)[O-])c2)C(=O)c2ccccc21 (stereo unspecified)
T/C (dose: 100.0 mg/kg/injection, schedule: Q01DX001 (ip), vehicle: Klucel (hydroxypropylcellulose) (HPC)): 90 % of control
T/C (dose: 200.0 mg/kg/injection, schedule: Q01DX001 (ip), vehicle: Klucel (hydroxypropylcellulose) (HPC)): 95 % of control
T/C (dose: 400.0 mg/kg/injection, schedule: Q01DX001 (ip), vehicle: Klucel (hydroxypropylcellulose) (HPC)): 92 % of control

Cc1sc(-c2ccccc2)nc1-c1ccc(N=Cc2ccc(N(CCCl)CCCl)cc2)cc1
T/C (dose: 100.0 mg/kg/injection, schedule: Q01DX001 (ip), vehicle: carboxymethylcellulose (CMC)): 101 % of control
T/C (dose: 200.0 mg/kg/injection, schedule: Q01DX001 (ip), vehicle: carboxymethylcellulose (CMC)): 101 % of control
T/C (dose: 400.0 mg/kg/injection, schedule: Q01DX001 (ip), vehicle: carboxymethylcellulose (CMC)): 106 % of control

O=C(CCCC(=O)N/N=C/c1cccc([N+](=O)[O-])c1)N/N=C\c1cccc([N+](=O)[O-])c1
T/C (dose: 50.0 mg/kg/injection, schedule: Q01DX001 (ip), vehicle: saline): 101 % of control
T/C (dose: 100.0 mg/kg/injection, schedule: Q01DX001 (ip), vehicle: saline): 95 % of control
T/C (dose: 200.0 mg/kg/injection, schedule: Q01DX001 (ip), vehicle: saline): 95 % of control
T/C (dose: 400.0 mg/kg/injection, schedule: Q01DX001 (ip), vehicle: saline): 91 % of control
